US7202239B2, “Cyclohexylphenyl carboxamides tocolytic oxytocin receptor antagonists” (Wyeth, priority 2001, dated 2007)

Target: T1, human oxytocin receptor (Homo sapiens, UniProt P30559)
T1 sequence (P30559 1-389): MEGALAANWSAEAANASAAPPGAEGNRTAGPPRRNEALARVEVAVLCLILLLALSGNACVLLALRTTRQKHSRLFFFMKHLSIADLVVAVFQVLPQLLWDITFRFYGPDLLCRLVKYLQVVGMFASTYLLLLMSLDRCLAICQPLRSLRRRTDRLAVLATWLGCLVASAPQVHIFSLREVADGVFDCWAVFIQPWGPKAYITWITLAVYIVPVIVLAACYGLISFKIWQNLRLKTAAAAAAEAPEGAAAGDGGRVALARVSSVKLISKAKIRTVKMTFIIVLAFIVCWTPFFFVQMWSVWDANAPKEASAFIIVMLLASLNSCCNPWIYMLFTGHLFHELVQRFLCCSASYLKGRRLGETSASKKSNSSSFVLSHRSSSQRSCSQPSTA
Test: Oxytocin binding in CHO cell membranes expressing human oxytocin receptors
Settings: 100 nM, [3H]oxytocin
Source text: Oxytocin Binding in Chinese Hamster Ovary Cell Membranes Expressing Human Oxytocin Receptors
Chinese Hamster Ovary (CHO) cells stably transfected with the human oxytocin receptor (cf. Tanizawa et al., U.S. Pat. No. 5,466,584 (1995) to Rohto Pharmaceutical Co. Ltd., Osaka, Japan) were obtained from M. Thibonnier, Case Western Reserve University School of Medicine, Cleveland, Ohio. A. Passaging and Amplification of Cells: CHO cells transfected with the human oxytocin receptors obtained from M. Thibonnier (pcDNA3.1 vector) are allowed to grow to confluency (approx. >90%) in T-150 flasks under sterile conditions, in a cell culture medium of F-12 Nutrient Mixture (HAM) with L-glutamine (Gibco Cat. # 11765-054) containing 15 mM HEPES (Gibco Cat. # 15630-080), 1% antibiotic/antimycotic (add 5 mL 100×, Gibco Cat. # 15240-062 per 500 mL F-12), 400 μg/mL of Geneticin (add 4 mL of 50 mg/mL per 500 mL F-12) and 10% Fetal Bovine Serum (Qualified, heat inactivated, Gibco Cat. # 16140-063). The medium is removed by aspiration and the cells are washed with 10 mL of Hank's Balanced Salt solution (Gibco Cat. # 14175-095). The salt solution is removed by aspiration and the cells trypsinized with 5 mL of trypsin-EDTA (0.05% trypsin, 0.53 mM EDTA-4Na, Gibco Cat. # 25300-070) for 1 min The trypsin is removed by aspiration and the cells dislodged by tapping. Cell Culture medium (e.g. 30 mL for 1:30 split) is immediately added and mixed well to inactivate trypsin. 1 mL of detached cells is added to new culture flasks containing fresh Cell Culture medium (e.g. into 25 mL per T-150 flask), and mixed gently. The cells are incubated at 37° C. in 5% CO2. The medium is changed at 3 to 4 days interval (or as appropriate). The cells grow to confluency (approx. >75%–95%) within 7–8 days. All steps are done under sterile conditions. B. Membrane Preparation: The cells are washed twice gently with Hank's Balanced Salt solution (eg, use 10 mL per T-150 flask). The excess solution is removed and the cells bathed for 15–30 min. in an enzyme-free Cell Dissociation Buffer (eg, use 8 mL Hank's Based, Gibco Cat. # 13150-016 per T-150 flask) until cells are loosened. The contents are transferred to centrifuge tubes (50 mL size) kept in ice bath. All subsequent steps are done at 4° C. The tubes are centrifuged at 300×g for 15 min (1380 rpm on SORVAL, Model RT6000D, using rotor for 50 mL tubes). The supernatant is discarded and the cells suspended in homogenizing buffer (10 mM Tris-HCl containing 0.25 M sucrose and 1 mM EDTA, pH 7.4) ensuring that the volume of the buffer is about ten times the volume of the cell pellet. The cells are pooled into a centrifuge tube (50 mL) and homogenized with a Polytron at setting 6 for 10 sec. The homogenate is transferred into a Potter-Elvjehm homogenizer and homogenized with 3 strokes. The homogenate is centrifuged at 1500×g for 10 min at 4° C. (3100 rpm using SORVAL, model RT6000D, using rotor for 50 mL tubes). The pellet is discarded. The supernatant is centrifuged at 100,000×g for 60 min. at 4° C. (Beckman L8-80M ultracentrifuge; spin at 37,500 rpm with rotor type 70 Ti for 50 mL tubes; 38,000 rpm with type 80Ti for 15 mL tubes; or 35,800 rpm with rotor type 45Ti). The supernantant is discarded and the pellet suspended in 3 to 4 mL of Tris buffer (50 mM TRIS-HCl, pH 7.4). The protein content is estimated by the Bradford or Lowry method. The volume of the membrane suspension is adjusted with the membrane buffer (50 mM Tris-HCl containing 0.1% BSA and 0.1 mM PMSF) to give 3.0 mg/mL (or as appropriate) of protein. The membranes are aliquoted and stored at −70° C. C. Radioligand Binding Assay: In wells of a 96-well format microtiter plate, is added 90, 110 or 130 μL (to make up a final volume of 200 μL) of assay buffer containing 50 mM of Tris-HCl (pH 7.4), […], 1 mg % aprotinin, 1 mg % leupeptin, 2 mg % 1,10-phenanthroline, 10 mg % trypsin inhibitor, and 0.1 mM PMSF. […]

Compound | OT % inhibition at 100 nM [%]
Cc1ccccc1C(=O)NNC(=O)c1ccc2n1Cc1ccccc1N(C(=O)c1ccc(C3CCCCC3)cc1)C2 [Example 12, 10-(4-Cyclohexyl-benzoyl)-N′-(2-methylbenzoyl)-10,11-dihydro-5H-pyrrolo[2,1-c][1,4]benzodiazepine-3-carbonyl-hydrazide] | 47
O=C(NNC(=O)C1CC1)c1ccc2n1Cc1ccccc1N(C(=O)c1ccc(C3CCCCC3)cc1)C2 [Example 13, 10-(4-Cyclohexyl-benzoyl)-N′-(cyclopropylcarbonyl)-10,11-dihydro-5H-pyrrolo[2,1-c][1,4]benzodiazepine-3-carbonyl-hydrazide] | 73
Cc1cccc(C(=O)NNC(=O)c2ccc3n2Cc2ccccc2N(C(=O)c2ccc(C4CCCCC4)cc2)C3)c1 [Example 14, 10-(4-Cyclohexyl-benzoyl)-N′-(3-methyl-benzoyl)-10,11-dihydro-5H-pyrrolo[2,1-c][1,4]benzodiazepine-3-carbonyl-hydrazide] | 53
O=C(O)c1ccc2n1Cc1ccccc1N(C(=O)c1ccc(C3CCCCC3)cc1)C2 [Example 22, 10-(4-Cyclohexyl-benzoyl)-10,11-dihydro-5H-pyrrolo[2,1 c][1,4]benzodiazepine-3-carboxylic acid] | 34

Same assay, conditions: 100 nM, [3H]oxytocin, read-out: OT % inhibition at 100 nM

Compound | inhibition at 0.1 µM [%]
COC(=O)c1ccc2c(c1)N(C(=O)c1ccc(C3CCCCC3)cc1)Cc1ccc(C(=O)N3CCN(C)CC3)n1C2.Cl [Example 1, Methyl 10-(4-cyclohexylbenzoyl)-3-[(4-methyl-1-piperazinyl)carbonyl]-10,11-dihydro-5H-pyrrolo[2,1-c][1,4]benzodiazepine-8-carboxylate hydrochloride salt] | 14
CN1CCN(C(=O)c2ccc3n2Cc2ccc(C(=O)O)cc2N(C(=O)c2ccc(C4CCCCC4)cc2)C3)CC1 [Example 3, 10-(4-Cyclohexyl-benzoyl)-3-[(4-methyl-1-piperazinyl)carbonyl]-10,11-dihydro-5H-pyrrolo[2,1-c][1,4]benzodiazepine-8-carboxylic acid] | -2
CC(C)(C)c1ccc(C(=O)c2ccc3n2Cc2ccccc2N(C(=O)c2ccc(C4CCCCC4)cc2)C3)cc1 [Example 5, [4-(tert-Butyl)phenyl][10-(4-cyclohexyl-benzoyl)-10,11-dihydro-5H-pyrrolo[2,1-c][1,4]benzodiazepin-3-yl]methanone] | 46
O=C(c1ccc(C2CCCCC2)cc1)N1Cc2ccc(C(=O)C(Cl)(Cl)Cl)n2Cc2ccccc21 [Example 7, 2,2,2-Trichloro-1-[10-(4-cyclohexyl-benzoyl)-10,11-dihydro-5H-pyrrolo[2,1-c][1,4]benzodiazepin-3-yl]-1-ethanone] | 12
O=C(NNC(=O)c1ccc2n1Cc1ccccc1N(C(=O)c1ccc(C3CCCCC3)cc1)C2)Nc1ccccc1 [Example 15, 2-{[10-(4-Cyclohexyl-benzoyl)-10,11-dihydro-5H-pyrrolo[2,1-c][1,4]benzodiazepin-3-yl]carbonyl}-N-phenyl-1-hydrazinecarboxamide] | 16
CN(C)/C=C/C(=O)c1ccc2n1Cc1ccccc1N(C(=O)c1ccc(C3CCCCC3)cc1)C2 [Example 20, (E)-1-[10-(4-Cyclohexyl-benzoyl)-10,11-dihydro-5H-pyrrolo[2,1-c][1,4]benzodiazepin-3-yl]-3-(dimethylamino)-2-propen-1-one] | 43
CN(N)C(=O)c1ccc2n1Cc1ccccc1N(C(=O)c1ccc(C3CCCCC3)cc1)C2 [Example 21, 10-(4-Cyclohexyl-benzoyl)-N-methyl-10,11-dihydro-5H-pyrrolo[2,1-c][1,4]benzodiazepine-3-carboxylic acid hydrazide] | 68

Same assay, conditions: [3H]oxytocin, value in parentheses, read-out: OT (IC50)

Compound | IC50 [nM]
CC(=O)c1ccc2n1Cc1ccccc1N(C(=O)c1ccc(C3CCCCC3)cc1)C2 [Example 6, 1-[10-(4-Cyclohexyl-benzoyl)-10,11-dihydro-5H-pyrrolo[2,1-c][1,4]benzodiazepin-3-yl]-ethanone] | 105
NNC(=O)c1ccc2n1Cc1ccccc1N(C(=O)c1ccc(C3CCCCC3)cc1)C2 [Example 8, 10-(4-Cyclohexy-benzoyl)-10,11-dihydro-5H-pyrrolo[2,1-c][1,4]benzodiazepine-3-carboxylic acid hydrazide] | 127
CC(=NNC(=O)c1ccc2n1Cc1ccccc1N(C(=O)c1ccc(C3CCCCC3)cc1)C2)N(C)C [Example 9, N′-{[10-(4-Cyclohexyl-benzoyl)-10,11-dihydro-5H-pyrrolo[2,1-c][1,4]benzodiazepin-3-yl]carbonyl}-N,N-dimethylethanehydrazonamide] | 35.4
CN(C)C=NNC(=O)c1ccc2n1Cc1ccccc1N(C(=O)c1ccc(C3CCCCC3)cc1)C2 [Example 10, N′-{[10-(4-Cyclohexyl-benzoyl)-10,11-dihydro-5H-pyrrolo[2,1-c][1.4]benzodiazepin-3-yl]carbonyl}-N,N-dimethylhydrazonoformamide] | 75.7
CC(=O)NNC(=O)c1ccc2n1Cc1ccccc1N(C(=O)c1ccc(C3CCCCC3)cc1)C2 [Example 11, N′-Acetyl-10-(4-cyclohexyl-benzoyl)-10,11-dihydro-5H-pyrrolo[2,1-c][1,4]benzodiazepine-3-carbonyl-hydrazide] | 52.1
NC(=O)c1ccc2n1Cc1ccccc1N(C(=O)c1ccc(C3CCCCC3)cc1)C2 [Example 16, 10-(4-Cyclohexyl-benzoyl)-10,11-dihydro-5H-pyrrolo[2,1-c][1,4]benzodiazepin-3-carboxamide] | 133
CN(C)/C=N/C(=O)c1ccc2n1Cc1ccccc1N(C(=O)c1ccc(C3CCCCC3)cc1)C2 [Example 17] | 51.4
C/C(=N\C(=O)c1ccc2n1Cc1ccccc1N(C(=O)c1ccc(C3CCCCC3)cc1)C2)N(C)C [Example 18] | 4.36
CN(C)NC(=O)c1ccc2n1Cc1ccccc1N(C(=O)c1ccc(C3CCCCC3)cc1)C2 [Example 19, 10-(4-Cyclohexyl-benzoyl)-N′-N′-dimethyl-10,11-dihydro-5H-pyrrolo[2,1-c][1,4]benzodiazepine-3-carbohydrazide] | 130
O=C(c1ccc2n1Cc1ccccc1N(C(=O)c1ccc(C3CCCCC3)cc1)C2)N1CCN(c2ncccn2)CC1 [Example 23] | 41.8
CN1CCN(C(=O)c2ccc3n2Cc2ccccc2N(C(=O)c2ccc(C4CCCCC4)cc2)C3)CC1 [Example 24, [10-(4-Cyclohexyl-benzoyl)-10,11-dihydro-5H-pyrrolo[2,1-c][1,4]benzodiazepin-3-yl](4-methyl-1-piperazinyl)-methanone] | 18.3
